The record followed here is patent US20230382871A1, “CSF1R KINASE INHIBITOR AND USE THEREOF” (SHANGHAI INSTITUTE OF MATERIA MEDICA, CHINESE ACADEMY OF …, priority 2020, published 2023).

Test [1] has as its system phosphorylated AKT (p-AKT) in BMDM. The test is described as follows: Western blot of CSF1-stimulated AKT phosphorylation in BMDM. It counts as cell-based. To be noted: Mus musculus, 100 nM, 2 h, CSF1 50 ng/mL 15 min. The protocol: Bone marrow-derived macrophages, after induction by CSF1 for 5 to 7 days, were centrifuged to remove the previous medium. 2 mL of a serum-free medium was added. […] CSF1 factor was added at a final concentration of 50 ng/mL for stimulation for 15 minutes. The culture medium was discarded, and cells were washed three times with pre-cooled PBS. Then, the cells were lysed by adding 1×SDS gel loading buffer. The cell lysates were heated in a boiling water bath for 15 min, and then stored at −20° C.
A protein sample as described above was subjected to SDS-PAGE electrophoresis. Then, the protein was transferred to a nitrocellulose membrane using a semi-dry electrotransfer system. The nitrocellulose membrane was placed in a blocking solution (5% skim milk in TBS-T) and incubated for 2 h at room temperature. Then, the membrane was allowed to react with a primary antibody overnight at 4° C. After the membrane was washed with TBS-T for three times with 15 min each time, the membrane was allowed to react in a secondary antibody dilution at room temperature for 1-2 h. […]
The inhibitory effect of Compound I on CSF1R and its signaling pathway in mouse primary macrophages was detected by immunoblotting assays. Each experiment was independently repeated three times and all experimental results were quantified. […]
(In general: In western blotting, separated proteins are transferred to a membrane and probed.)

The subject of a further test is BMDM cells. Briefly: CCK8 cell proliferation inhibition assay on CSF1-stimulated bone marrow-derived macrophages. In kind it is cell-based, mice (BALB/c). The following applies: Mus musculus, 72 h exposure. As for the experimental part: Mice (BALB/c) were subjected to euthanasia and then immersed in 75% alcohol for 3-5 min. The tibias and femurs of the mice were removed with ophthalmic forceps and ophthalmic clips on an ultraclean table. The tibial and femoral joints were cut off and bone marrow cells were washed out with a sterile buffer. Bone marrow cells were filtered with a 70 µm nylon membrane. The filtrate was centrifuged and the supernatant was discarded. An erythrocyte lysate was added to the pellets, which were allowed to incubate for 3-4 min. Then, a sterile buffer was added to stop the lysis reaction. The reactant was centrifuged and the supernatant was discarded, thereby yielding bone marrow cell pellets. The cells were cultured in 1640 medium (supplemented with FBS and 10 ng/mL of CSF1) for 5 to 7 days and identified as macrophages by flow cytometry. CCK8 cell counting kits were used in this assay. Bone marrow-derived macrophages, after induction by CSF1 for 5 to 7 days, were seeded into 96-well culture plates and allowed to incubate overnight. Then, the cells were exposed to compounds at various concentrations for 72 h. A blank control group was set. 10 μL of CCK8 reagent was added to each well and the places were placed in an incubator for 4 to 12 h. The plates were read with a microplate reader at a wavelength of 450 nm. […] Each experiment was independently repeated for three times.

Test [2] relates to macrophage marker F4/80 in HT-29 tumor tissues. The test is described as follows: Immunohistochemistry of macrophage marker F4/80 in HT-29 tumor tissues. In kind it is in vivo, nude mice. To be noted: Compound I 5, 10, 20 mg/kg; Axitinib 40 mg/kg. As for the experimental part: At the end of the in vivo experiments, U87MG and HT-29 xenografts in nude mice were removed and fixed with […] to prepare paraffin sections. Expression of individual proteins was assessed using multiplicative quick score method (MQS). This evaluation method takes into account both the staining intensity and the staining range. […] The average intensity score of positive stained cells was 0 to 3 (0=no staining; 1=weak staining; 2=moderate staining; 3=strong staining). The total score a (minimum 0 and maximum 18) is then calculated by multiplying the range score by the intensity score.

Test [3] deals with mouse astrocytoma DBT subcutaneous xenografts. The test is described as follows: Mouse astrocytoma DBT subcutaneous tumor model, alone or combined with anti-PD-1 antibody. In kind it is in vivo, BALB/c mice. The following applies: alone, 5 mg/kg po twice a day, 28 days. As for the experimental part: Mouse astrocytoma DBT cell suspensions were injected subcutaneously into the right axillary fossa of BALB/c mice under aseptic conditions. The diameters of the subcutaneous xenografts in nude mice were measured with a vernier caliper. The animals were randomly grouped after the xenografts reached an average volume of 100 to 200 mm^3. Compound I was administered orally at a dose of 5 mg/kg (alone or in combination with an anti-PD-1 antibody) twice a day for 28 consecutive days. An anti-PD-1 antibody (Bio X Cell, InVivoMAb anti-mouse PD-1 (CD279) (cat. No. BE0146)) was administered intraperitoneally at a dose of 10 mg/kg (alone or in combination with Compound I) once every three days for 28 consecutive days. Throughout the experiment, the diameters of the xenografts were measured twice a week and the mice were weighed at the same time. The tumor volume (TV) was calculated as TV=½×a×b^2 where “a” and “b” denote the length and width of a tumor, respectively. The relative tumor volume (RTV) was calculated from the measurement results with the calculation formula RTV=Vt/V0, in which V0 is the tumor volume measured upon administration after grouping (i.e., D0) and Vt is the tumor volume from each measurement.
For all dose groups, n=9. The experimental data were analyzed for significant differences using the t-test. […]

Test [4] concerns solid tumors, such as brain gliomas. Briefly: Clinical trial, preliminary efficacy. It counts as in vivo. The following applies: particularly high-grade brain gliomas, data not shown.
Test [5] deals with M2-type macrophage marker CD206 in U87MG tumor tissues. The test is described as follows: Immunohistochemistry of M2-type macrophage marker CD206 in U87MG tumor tissues. It counts as in vivo, nude mice. As for the experimental part:
At the end of the in vivo experiments, U87MG and HT-29 xenografts in nude mice were removed and fixed with […] to prepare paraffin sections.
Expression of individual proteins was assessed using multiplicative quick score method (MQS). This evaluation method takes into account both the staining intensity and the staining range. The method estimates the proportion of positive cells and gives a range score from 1 to 6 (1=1%-4%; 2=5%-19%; 3=20%-39%; 4=40%-59%; 5=60%-79%; 6=80%-100%). The average intensity score of positive stained cells was 0 to 3 (0=no staining; 1=weak staining; 2=moderate staining; 3=strong staining). The total score a (minimum 0 and maximum 18) is then calculated by multiplying the range score by the intensity score.
For detecting the changes in the macrophage marker F4/80 and M2-type macrophage marker CD206 in the U87MG tumor tissues, quantitative analysis (solvent: n=6, blank preparation: n=6, Compound I (10 mg/kg): n=6, Compound I (20 mg/kg): n=6, Compound I (40 mg/kg): n=6, Axitinib: n=4) was performed on all sections and the experimental data were analyzed for significant differences using the t-test. * denotes p<0.05 as compared with the blank preparation group, ** denotes p<0.01 as compared with the blank preparation group, and denotes p<0.001 as compared with the blank preparation group.

SMILES strings stand for the structures.

In test [1], `Cc1cc(NC(=O)c2cccc3cc(-c4cccc5[nH]nc(N)c45)ccc23)ccc1F` [Compound I] gave an inhibition at 0.1 µM of 64.4%. This compound had an IC50 in the test on BMDM cells of 93 nM. Besides, the “expression of F4/80, HT-29 tumor tissue” value in test [2] is “inhibited the expression of F4/80 and CD206 in a dose-dependent manner”. Moreover, the “in vivo growth of DBT tumors” value in test [3] is “no significant inhibitory activity”. The “preliminary efficacy in clinical trial” value in test [4] is “good therapeutic efficacy”. The “inhibition rate of CD206 expression, U87MG tumor tissue” value amounted to 34.48% in test [5] (10 mg/kg dose group) and 70.69% in test [5] (40 mg/kg dose group).

By inhibition is commonly meant the change of the read-out against control, counted positive when it falls. Read a low inhibition as a response near the control. As a reminder, the IC50 is the concentration needed to halve the response being measured. Lower therefore signals greater potency in that assay.
